Among the data in PubChem BioAssay (NCI) are TGI and GI50 values, retold here.

What all share (experiment): inhibition of tumour cell growth, NCI panel, 48 h
Assay [1] has as its system U251 CNS.
For assay [2], the system named is OVCAR-3 ovarian.
Assay [3] has as its system SK-OV-3 ovarian.
Assay [4] deals with HL-60(TB) leukemia.
Assay [5] concerns UACC-62 melanoma.
Assay [6] concerns TK-10 renal.
In assay [7] the test system is KM12 colon.
Assay [8] relates to HCC-2998 colon.
Assay [9] relates to BT-549 breast.
The test system of assay [10] is MDA-MB-435.

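Exposure lasted 48 hours, with cells grown in 96-well plates and compounds tested at five concentrations. At the GI50, growth is halved. TGI denotes the concentration required for complete inhibition of growth.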

For the molecule `CC/C(CC(=O)CCC(=O)Nc1ccc(C)c(C)c1)=N\NC(=O)C(N)=O`, the TGI in assay [1], in [2], in assay [3], in assay [4], in [5] and in assay [6] was > 100 µM throughout.

For `Cc1ccc(S(=O)(=O)SCc2ccccc2)cc1`, the TGI is 58.8 µM in assay [1]; 45.5 µM in assay [2]; 57.6 µM in assay [7]; > 95.9 µM in assay [3]; 5.76 µM in assay [4]; > 67.9 µM in assay [5]. Further, the results for the TGI in assay [8] and in assay [6] were 57.4 µM and > 100 µM, respectively.

Turning to `CCc1ncnc2cc(OCC3CO3)c(OC)cc12` (centres undefined), the TGI in [9] is 15.1 µM; in [1], > 100 µM; in assay [2], > 100 µM; in [7] it was 49.3 µM; in assay [3], 73.6 µM; in assay [5], 18.4 µM. Further, the TGI worked out at 21.7 µM in assay [10] and 69.5 µM in assay [6].

For `Cc1cc(NS(=O)(=O)c2ccc(NC(=O)COC(=O)c3cccc4c(=O)c5ccccc5[nH]c34)cc2)no1`, the TGI in assay [1], in assay [2], in assay [7], in assay [3], in assay [4] and in [5] was > 100 µM each time. Moreover, the TGI in assay [8] and in assay [6] was > 100 µM in each case.

Consider `COc1ccc(/C(=N/O)c2cc(OC)c(OC)c(OC)c2)c(OC)c1N`, for which the GI50 in assay [9] was 8.79 µM; in assay [1], 5.65 µM; in assay [7], 3.27 µM; in [3], 8.51 µM; in assay [4] it was 3.38 µM; in assay [8], 4.29 µM. The GI50 in [6] is > 100 µM. The TGI in assay [9] is > 100 µM; in assay [1], > 100 µM; in assay [7], > 100 µM; in [3], > 100 µM; in assay [4], 14.3 µM; in [8], > 100 µM. In addition, the TGI in assay [6] is > 100 µM.

With `O=C(Sc1sc(=S)sc1SC(=O)c1ccccc1)c1ccccc1`, the TGI was 80.7 µM in assay [1]; > 100 µM in assay [2]; > 100 µM in assay [7]; 41.4 µM in assay [3]; > 100 µM in assay [4]; 53 µM in assay [5]. In addition, the TGI in assay [8] and in [6] was > 100 µM throughout.

As for `COC(=O)C(=O)C(CC(=O)Nc1cccc(C(F)(F)F)c1)C(=O)OC` (centres undefined), the TGI in [1], in [3], in [4], in [5], in [8] and in [6] was > 100 µM in each case.

In the case of `COc1cc2c(cc1OC)[C@@H]([C@H](O)c1ccccc1)NCC2`, the TGI in assay [1], in assay [2], in assay [7], in assay [3], in [4] and in assay [5] was > 100 µM in each case. The TGI in assay [8] and in [6] was > 100 µM throughout.

Turning to `COc1cc(NC(C)CCCN)c2ncccc2c1Sc1ccc(Cl)cc1` (centres undefined), the GI50 in [1] is 1.51 µM; in [2] it was 1.77 µM; in assay [7], 1.77 µM; in assay [3] it was 1.65 µM; in [4] it was 2.05 µM; in assay [5], 1.75 µM. Further, the results for the GI50 in [8], in assay [10] and in assay [6] were 1.75 µM, 1.86 µM and 2.01 µM, respectively. The TGI in assay [1] is 2.83 µM; in [2] it was 3.28 µM; in [7] it was 3.27 µM; in assay [3] it was 3.08 µM; in assay [4], 3.88 µM; in assay [5] it was 3.33 µM. Moreover, the TGI in assay [8] is 3.17 µM; in [10], 3.57 µM; in [6], 3.5 µM.

Regarding `CCN(CC)CCC(=O)/C=C/c1ccc(C)cc1`, the TGI in assay [1] stood at 22.3 µM; in assay [2], 31.1 µM; in assay [7] it was 7.98 µM; in [3], 35.1 µM; in assay [4], 33.6 µM; in [5] it was 30.9 µM. Also, the figures for the TGI in assay [8] and in [6] were 32.6 µM and 19.3 µM, respectively.

`O=C(Nc1cccc(-n2cc(-c3ccncc3)c(-c3ccc(O)c(Cl)c3)n2)c1)c1ccc(Cl)c(Cl)c1`: the GI50 in assay [9] is 10.4 µM; in [1], 4.03 µM; in assay [7], 5.44 µM; in assay [3] it was 42.3 µM; in assay [5], 10.8 µM; in assay [8], 40.6 µM. For the same molecule, the GI50 was 6.06 µM in [10] and 43.2 µM in assay [6]. Moreover, the TGI was > 100 µM in [9]; 34.2 µM in assay [1]; > 100 µM in assay [7]; > 100 µM in [3]; 47.6 µM in assay [5]; > 100 µM in [8]. Moreover, the TGI in assay [10] was 46.2 µM; in [6], > 100 µM.

In the case of `Clc1ccc(C2=NOC3C4CCC(C4)C23)cc1` (centres undefined), the TGI in assay [1], in assay [2], in assay [7], in assay [3], in [4] and in assay [5] was > 100 µM in each case. Besides, the TGI in assay [8] and in [6] was > 100 µM throughout.

`CCOP(=O)(CC(=O)C1=C(O)C(CCCCNC(=O)OC(C)(C)C)N(Cc2ccccc2)C1=O)OCC` (centres undefined): the TGI in [1], in [2], in assay [7], in assay [3], in assay [4] and in assay [5] was > 100 µM throughout. Also, the TGI in assay [8] and in [6] was > 100 µM each time.

For `CC(C)(C)N=CN(C=C(c1ccccc1)c1ccccc1)C1CCCCC1`, the TGI in assay [1], in assay [2], in assay [7], in [5] and in assay [6] was > 100 µM throughout.
